Entries after “also recorded” stand apart in the source; their conditions may differ.
Experiments:
[1] = tested on: motor coordination (rotarod) in mice; settings: mouse, in vivo
[2] = tested on: conditioned avoidance response in rats; test: Inhibition of conditioned avoidance response in rats; type: in vivo, Sprague Dawley rats
Source text: 6. Inhibition of Conditioned Avoidance Response in Rats
Male Sprague Dawley rats (200-250 g) are trained to avoid an electric foot shock, by continuously changing room with the appropriate visuals and auditory signals, in an automatic 2-way conditioned avoidance apparatus (Coulbourn Instrument Co.). Only the animals that perform at least a 70% avoidance (3 successive training sessions) are kept for the experiment.
The day of the experiment, the selected animals are submitted to a pre-treatment control session. The compound to be studied is then administered i.p. and the animals are placed back in the apparatus for evaluation 30 minutes later. Diazepam was used as a standard.

[3] = tested on: righting reflex / ethanol narcosis in mice; test: Potentiation of sleeping time induced by ethanol in mice; type: in vivo, CD #1 mice; settings: for percentage of animals displaying a loss of the righting reflex: with ethanol
Protocol: 7. Potentiation of Sleeping Time Induced by Ethanol in Mice
This test was done with male CD #1 mice of 25-35 g. The mice are injected intraperitoneally (8 mice per dose). A subhypnotic dose of ethanol (12 ml/kg of 50% ethanol solution) is administered orally 30 minutes later.
The loss of the righting reflex is evaluated, for each animal, 30 minutes after the administration of the alcohol. It is considered that there is a potentialization of ethanol narcosis if the righting time exceeded 30 seconds.
The results which are reported in Table 7 are expressed in terms of the percentage of animals displaying a loss of the righting reflex versus the administered dose. Chlorpromazine (5 mg/kg i.p.) is used as a standard.

C#CC(C)N (stereo not drawn) [Compound 3, 2-Amino-3-butyne]
neurotoxicity / motor activity (in words) [1]: much less neurotoxic than buspirone (rot TD50 =135 mg/kg p.o.) and diazepam | conditioned avoidance response, first exposure ([2]; 10 mg/kg i.p., first exposure): 3% | conditioned avoidance response, re-exposed ([2]; 10 mg/kg i.p., re-exposed): 29% | ED50 ([2]; Rattus norvegicus, ip, 0.5 h, calculated with repeated exposure, r^2 = 0.43): 21.5 ± 11.2 mg/kg | inhibition of conditioned avoidance response (in words) ([2]; rats): very active at first; also recorded: much less active if re-; also recorded: inhibit conditioned avoidance in rats, but are less active than diazepam; also recorded: loss of activity in the case of compound N^o 3 after the first exposure to the drug; also recorded: does not seem to impair the animal's sensory discrimination at doses 2 to 3 times above that which produces a quieting effect with repeated exposure | percentage of animals displaying a loss of the righting reflex ([3]; 10 mg/kg i.p.): 50% | percentage of animals displaying a loss of the righting reflex ([3]; 30 mg/kg i.p.): 50% | percentage of animals displaying a loss of the righting reflex ([3]; 100 mg/kg i.p.): 25% | potentiation of ethanol (in words) ([3]; subhypnotic dose of ethanol, mice): active at t = 30 min; also recorded: potentiate the effect of a subhypnotic effect dose of ethanol

Reference: patent publication US5436273A, “Psychoactive propargylamine derivatives used in the treatment of anxiety, psychotic states or aggression” (Lowchol Scientific, Inc., priority 1993, dated 1995)
